The values that follow come from patent publication US20260070899A1, “N-(2-(4-CYANOTHIAZOLIDIN-3-YL)-2-OXOETHYL)-QUINOLINE-4-CARBOXAMIDES” (AstraZeneca AB, priority 2022, published 2026).

The target of one assay is T1, FAP Mouse Plasma (Mus musculus, UniProt P97321).
T1 construct: Plasma (anticoagulant K2EDTA) was used as the enzyme source; tissue AZ AST Biobank; host or cells: mouse plasma (K2EDTA)
T1 sequence (P97321 24-761 limits assumed): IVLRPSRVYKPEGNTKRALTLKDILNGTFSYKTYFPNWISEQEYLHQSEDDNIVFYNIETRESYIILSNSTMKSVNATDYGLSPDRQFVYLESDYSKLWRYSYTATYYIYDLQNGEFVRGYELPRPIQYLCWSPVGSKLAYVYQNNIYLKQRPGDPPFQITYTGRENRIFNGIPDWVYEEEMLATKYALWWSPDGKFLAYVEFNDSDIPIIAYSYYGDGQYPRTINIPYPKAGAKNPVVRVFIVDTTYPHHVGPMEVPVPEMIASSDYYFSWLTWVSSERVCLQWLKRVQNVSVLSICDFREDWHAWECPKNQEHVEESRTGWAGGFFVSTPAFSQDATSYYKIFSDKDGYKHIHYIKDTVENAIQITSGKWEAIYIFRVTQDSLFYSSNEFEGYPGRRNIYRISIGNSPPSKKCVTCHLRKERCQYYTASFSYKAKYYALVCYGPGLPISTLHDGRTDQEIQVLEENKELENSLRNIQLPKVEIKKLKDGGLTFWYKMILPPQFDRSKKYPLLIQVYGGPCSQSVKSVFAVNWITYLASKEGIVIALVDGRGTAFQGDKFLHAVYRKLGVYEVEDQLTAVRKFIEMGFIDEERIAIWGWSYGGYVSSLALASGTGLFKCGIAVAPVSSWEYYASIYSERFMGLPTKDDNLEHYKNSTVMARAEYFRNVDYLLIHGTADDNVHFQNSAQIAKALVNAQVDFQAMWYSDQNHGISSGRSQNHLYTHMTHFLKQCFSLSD
Nature of the assay: FAP plasma inhibition assay, mouse plasma. The class given is biochemical. As to conditions: mouse plasma dilution 1:67, Ala-Pro-AMC 75 μM; n = 1. Here is the method: This assay was adapted from the method described in Example 89 for detection of FAP target engagement enzyme activity in plasma. Plasma (anticoagulant K2EDTA) was used as the enzyme source: Human plasma (Pooled from AZ Biobank) and Mouse plasma (AZ AST Biobank) and Cynomolgus plasma (BioIVT, #NHP00PLK2FNN, lot CYN222895). 384-Well black fluotrack PS plates (Greiner 781076) were used. 20 μL diluted plasma (Cynomolgus and Human plasma dilution 1:40, Mouse plasma dilution 1:67) in buffer (PBS, 0.1% BSA) was added to 0.6 μL compounds (in DMSO). Compounds were tested using 10 CR, 3 fold dilution series from 500 nM FAC. Two replicates for each assay point were run on the same plate. A fluorescence blank read was taken before substrate addition. Substrate, Ala-Pro-AMC (ARI-3144) stock solution (20 mM in DMSO) was diluted in buffer (PBS, 0.1% BSA) to 150 μM concentration and 20 μL added giving 75 μM FAC. Plates were incubated for 40 min at rt in the dark. The plates were read on a Beckman Paradigm® reader with excitation 360 nm and emission 465 nm. Data were analyzed in Excel (IDBS XLfit Add-In) using a one site dose response model (4-parameter logistic fit).

The target in the next assay is T2, hFAP (M39-A757) (Homo sapiens, UniProt Q12884).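 Further: surface plasmon resonance direct binding to hFAP amine-coupled on a sensor chip, rising compound concentrations by single cycle kinetics, Kd from global fit of interaction models.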
T2 sequence (Q12884 39-757): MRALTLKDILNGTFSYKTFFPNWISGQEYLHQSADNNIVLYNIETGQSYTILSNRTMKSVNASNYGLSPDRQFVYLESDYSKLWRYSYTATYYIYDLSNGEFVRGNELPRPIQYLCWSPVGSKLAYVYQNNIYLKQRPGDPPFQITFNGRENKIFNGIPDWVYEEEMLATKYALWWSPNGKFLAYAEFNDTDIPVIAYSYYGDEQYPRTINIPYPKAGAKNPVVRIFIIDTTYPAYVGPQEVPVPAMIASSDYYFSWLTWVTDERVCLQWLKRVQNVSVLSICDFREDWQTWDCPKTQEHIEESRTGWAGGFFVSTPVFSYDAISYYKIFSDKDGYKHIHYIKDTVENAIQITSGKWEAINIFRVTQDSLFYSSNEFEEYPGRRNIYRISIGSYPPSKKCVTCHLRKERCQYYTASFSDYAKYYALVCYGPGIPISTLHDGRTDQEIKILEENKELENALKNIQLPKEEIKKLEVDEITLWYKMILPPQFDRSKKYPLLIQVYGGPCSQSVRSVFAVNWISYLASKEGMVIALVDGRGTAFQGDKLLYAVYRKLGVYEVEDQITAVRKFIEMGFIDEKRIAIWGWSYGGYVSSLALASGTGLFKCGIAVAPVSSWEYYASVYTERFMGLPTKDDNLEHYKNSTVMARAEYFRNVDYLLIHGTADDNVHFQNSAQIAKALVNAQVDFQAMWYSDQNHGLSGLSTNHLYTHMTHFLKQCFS
Nature of the assay: biochemical.

The target of assay [1] is T3, Prolyl endopeptidase, Prolyl Oligopeptidase (hPREP) (Homo sapiens, UniProt P48147).
T3 sequence (P48147 1-710): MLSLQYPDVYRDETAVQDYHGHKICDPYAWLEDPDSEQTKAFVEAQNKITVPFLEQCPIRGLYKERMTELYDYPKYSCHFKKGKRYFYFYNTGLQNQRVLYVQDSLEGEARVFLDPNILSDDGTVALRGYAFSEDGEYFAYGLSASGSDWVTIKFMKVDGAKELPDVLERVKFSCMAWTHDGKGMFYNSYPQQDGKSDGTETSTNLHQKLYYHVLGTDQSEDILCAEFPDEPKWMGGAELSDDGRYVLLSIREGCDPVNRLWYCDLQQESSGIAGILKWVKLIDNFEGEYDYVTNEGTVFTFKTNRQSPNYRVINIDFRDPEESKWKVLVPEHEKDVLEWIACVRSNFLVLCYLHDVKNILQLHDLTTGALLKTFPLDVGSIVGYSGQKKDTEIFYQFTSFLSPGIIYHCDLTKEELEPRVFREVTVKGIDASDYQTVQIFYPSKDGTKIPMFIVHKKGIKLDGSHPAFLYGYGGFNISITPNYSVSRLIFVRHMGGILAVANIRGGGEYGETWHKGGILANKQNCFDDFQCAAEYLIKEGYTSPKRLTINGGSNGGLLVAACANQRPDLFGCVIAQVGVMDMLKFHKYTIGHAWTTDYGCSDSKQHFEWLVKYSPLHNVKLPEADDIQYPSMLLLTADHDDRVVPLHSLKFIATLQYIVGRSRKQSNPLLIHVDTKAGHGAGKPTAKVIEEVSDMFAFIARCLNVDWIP
Nature of the assay: biochemical.

Procedure for hFAP (M39-A757): Compounds were tested in a direct binding assay using 8K surface plasmon resonance biosensor (GE Healthcare) at 20° C. Immobilization of hFAP (M39-A757) on a CMD200M sensor chip (Xantec) was performed using standard amine coupling procedure in immobilization buffer (10 mM HEPES, 150 mM NaCl, 0.05% Tween20, pH 7.4). The surface was washed with 10 mM aq NaOH, 1M NaCl before being activated with EDC/NHS (GE Healthcare), followed by immobilization of hFAP (in 10 mM Acetate pH 5.0). Finally, the surface was deactivated by ethanolamine. Immobilization levels of hFAP were around 4000-6000 RU. The reference spot was treated as described, omitting the injection of hFAP. Compound concentration series were injected over the immobilized protein in increasing concentrations (2-500 nM) using single cycle kinetics in running buffer (20 mM TRIS, 150 mM NaCl, 0.05% Tween20, 1% DMSO, pH 7.4). Interaction models were fitted globally to the experimental traces, enabling determination of kon, koff and Kd.

As usually defined, the IC50 is the concentration that inhibits the measured activity by half. Read a high IC50 as lower potency. The term Kd denotes the equilibrium constant for the complex coming apart. Lower therefore signals tighter binding. Regarding `N#C[C@@H]1CSCN1C(=O)CNC(=O)c1ccnc2ccc(C3CCCCO3)cc12` (mixture of isomers) [Example 32, N-(2-((R)-4-Cyanothiazolidin-3-yl)-2-oxoethyl)-6-((RS)-tetrahydro-2H-pyran-2-yl)quinoline-4-carboxamide], the half-inhibitory concentration (IC50) against FAP Mouse Plasma worked out at 1 nM; in assay [1], 910 nM. For the same compound, the Kd on hFAP (M39-A757) is 0.35 nM.
For `CO[C@H]1CC[C@H](c2ccc3nccc(C(=O)NCC(=O)N4CSC[C@H]4C#N)c3c2)CC1` (single isomer, unassigned) [Example 78, N-(2-((R)-4-Cyanothiazolidin-3-yl)-2-oxoethyl)-6-((1r,4R*)-4-methoxycyclohexyl)quinoline-4-carboxamide], in that order: 0.2 nM, 1000 nM and 0.022 nM.
For `CC(C)(F)COc1ccc2nccc(C(=O)NCC(=O)N3CSC[C@H]3C#N)c2c1` [Example 3, (R)—N-(2-(4-Cyanothiazolidin-3-yl)-2-oxoethyl)-6-(2-fluoro-2-methylpropoxy)quinoline-4-carboxamide], in that order: 0.5 nM, 950 nM and 0.062 nM.
For `N#C[C@@H]1CSCN1C(=O)CNC(=O)c1ccnc2ccc(C3(O)CCOCC3)cc12` [Example 15, (R)—N-(2-(4-Cyanothiazolidin-3-yl)-2-oxoethyl)-6-(4-hydroxy-tetrahydro-2H-pyran-4-yl)quinoline-4-carboxamide], in that order: 0.5 nM, 1100 nM and 0.068 nM.
As for `CC(C)(O)c1ccc2nccc(C(=O)NCC(=O)N3CSC[C@H]3C#N)c2c1` [Example 16, (R)—N-(2-(4-Cyanothiazolidin-3-yl)-2-oxoethyl)-6-(2-hydroxypropan-2-yl)quinoline-4-carboxamide], the figures for the IC50 (at FAP Mouse Plasma; in assay [1]) were 0.9 nM and 640 nM, respectively. For the same compound, binding at hFAP (M39-A757) was characterised by a dissociation constant (Kd) of 0.23 nM.
For `COC(C)(C)c1ccc2nccc(C(=O)NCC(=O)N3CSC[C@H]3C#N)c2c1` [Example 18, (R)—N-(2-(4-Cyanothiazolidin-3-yl)-2-oxoethyl)-6-(2-methoxypropan-2-yl)quinoline-4-carboxamide], in that order: 2.1 nM, 860 nM and 0.43 nM.
For `N#C[C@@H]1CSCN1C(=O)CNC(=O)c1ccnc2ccc(C3CCOCC3)cc12` [Example 20, (R)—N-(2-(4-Cyanothiazolidin-3-yl)-2-oxoethyl)-6-(tetrahydro-2H-pyran-4-yl)quinoline-4-carboxamide], in that order: 0.5 nM, 1000 nM and 0.056 nM.
For `CCOC1(c2ccc3nccc(C(=O)NCC(=O)N4CSC[C@H]4C#N)c3c2)CCOCC1` [Example 23, (R)—N-(2-(4-Cyanothiazolidin-3-yl)-2-oxoethyl)-6-(4-ethoxytetrahydro-2H-pyran-4-yl)quinoline-4-carboxamide], in that order: 0.7 nM, 1100 nM and 0.059 nM.
As for `N#C[C@@H]1CSCN1C(=O)CNC(=O)c1ccnc2ccc(C3(C#N)CC3)cc12` [Example 70, (R)-6-(1-Cyanocyclopropyl)-N-(2-(4-cyanothiazolidin-3-yl)-2-oxoethyl)quinoline-4-carboxamide], the half-maximal inhibitory concentration (IC50) against FAP Mouse Plasma came out at 0.7 nM; in assay [1], 120 nM. The compound also had an equilibrium dissociation constant (Kd) at hFAP (M39-A757) of 0.62 nM.
